In article PMC8911579, “(−)-Naringenin 4′,7-dimethyl Ether Isolated from Nardostachys jatamansi Relieves Pain through Inhibition of Multiple Channels” (Molecules, 2022):

What was measured:
TRPA1 channels = target: T1, TRPA1 channels (Homo sapiens, UniProt O75762); assay: whole-cell patch-clamp, TRPA1 stably expressed in HEK293 cells; type: cell-based; conditions: 30 µM
T1 construct: expressed in transfected cells

[1] = test system: formalin-induced inflammatory pain; assay: formalin-induced mouse inflammatory pain model; type: in vivo, ICR mice; conditions: phase I and phase II
Procedure: The formalin test is a classical inflammatory pain model which represents somatic pain. Intraplantar injection of formalin results in a typical two-stage nociceptive behavior, which is characterized by licking and biting of the injected paw. The first phase (0~10 min) mainly reflects nociceptive pain, while the second phase (11~60 min) represents the inflammatory responses. In our study, we tested the effects of (−)-NRG-DM on formalin-induced inflammatory pain in mice. (−)-NRG-DM at 30 mg/kg and 50 mg/kg body weight were individually intraperitoneally administrated 30 min before injection of 1% formalin solution.
Adult male ICR mice weighing 20 ± 2 g were randomly divided into 3 groups (n = 10 for each group) and acclimatized in a transparent observation chamber for at least 30 min before the experiment. Mice were intraperitoneally administrated with vehicle or (−)-NRG-DM (30 or 50 mg/kg) 30 min prior to formalin injection. Then, 1% formalin solution (20 μL per site) was subcutaneously injected into the plantar of the left hind paw to induce acute inflammatory pain. Immediately, mice were put back into the observation chambers. Nociception caused by formalin was assessed by scoring painful behaviors and licking time over a period of 60 min. […]

[2] = test system: transient outward potassium currents (IA) in DRG neurons; assay: whole-cell patch-clamp, transient outward potassium currents in DRG neurons; type: cell-based; conditions: Mus musculus, DRG neuron; n = 5
Source text: The currents in mouse DRG neurons can be separated into IA and IK. They could be distinguished by applying voltage steps from a holding potential of −50 mV, at which IA was almost completely inactivated, while IK remained unchanged. Thereby, IA could be separated by subtracting IK from the total potassium currents. According to these electrophysiological characteristics, the effects of (−)-NRG-DM on potassium currents were examined (Figure 5A). […] Additionally, the effects of (−)-NRG-DM on the kinetics of the Kv channels were further characterized. The Kv currents were elicited by multiple 1500 ms depolarization pulses ranging from −80 mV to +90 mV in 10 mV increments from a holding potential of −80 mV. […] The values of V1/2 in the absence and presence of 10 µM (−)-NRG-DM were −6.43 ± 1.21 mV and −8.08 ± 2.02 mV, respectively (Figure 5D).
Dorsal root ganglia (DRG) were dissected from male C57BL/6 mice aged 4~6 weeks. The ganglia were first cut into small pieces and then digested at 37 °C for 20 min in DMEM containing 1 mg/mL collagenase type I and 0.25 mg/mL trypsin (Sigma-Aldrich). Subsequently, the digested small fragments were terminated and resuspended with DMEM/F12 growth medium (Gibco) supplemented with 10% fetal bovine serum (FBS) (Gibco). […]

[3] = test system: acutely isolated mouse small-diameter DRG neurons; assay: whole-cell current-clamp, action potential firing in DRG neurons; type: cell-based; conditions: for action potential amplitude: 200 pA current injection, 500 ms, control 98.00 ± 6.19 mV
Source text: To investigate the underlying mechanism of (−)-NRG-DM-mediated analgesic activity, whole-cell current-clamp technology was applied to examine the effects of (−)-NRG-DM on the action potential firing in acutely isolated mouse small-diameter DRG neurons. The action potentials were evoked by a current injection of 200 pA for a 500 ms period. The threshold was defined by the first amplitude at which an action potential with a membrane potential larger than 0 mV was produced, and the amplitude was defined as the peak relative to the resting membrane potential. […] The amplitudes were reduced from 98.00 ± 6.19 mV to 95.00 ± 5.65 mV, 93.40 ± 8.27 mV, 86.80 ± 9.75 mV, and 74.40 ± 7.08 mV after perfusion of 1 μM, 3 μM, 10 μM, and 30 μM (−)-NRG-DM, respectively (Figure 4C, n = 5). Current threshold, the injection current required to elicit a single all-or-none action potential, was determined by applying 500 ms depolarizing currents of increasing magnitude. […] The inhibitory effects of (−)-NRG-DM on the firing frequency and the amplitudes of action potentials were partially reversible after washout.
Dorsal root ganglia (DRG) were dissected from male C57BL/6 mice aged 4~6 weeks. The ganglia were first cut into small pieces and then digested at 37 °C for 20 min in DMEM containing 1 mg/mL collagenase type I and 0.25 mg/mL trypsin (Sigma-Aldrich). Subsequently, the digested small fragments were terminated and resuspended with DMEM/F12 growth medium (Gibco) supplemented with 10% fetal bovine serum (FBS) (Gibco). Finally, the dissociated DRG neurons were seeded onto 24-well plates with poly-L-lysine-coated coverslips and placed in a 37 °C, 5% CO2 incubator for at least 1 h before electrophysiological experiments.

[4] = pharmacokinetic study, plasma concentration after intraperitoneal administration; type: in vivo, ICR mice
Procedure: The pharmacokinetic study was performed in male ICR mice weighted 20 ± 2 g. The mice were fasted for 12 h before intraperitoneal administration of (−)-NRG-DM at 50 mg/kg. Blood samples (0.5 mL) were collected at 0.5, 1, and 1.5 h from the abdominal aorta into the heparinized tubes after drug administration. The plasma was separated by centrifugation (11,000 rpm for 5 min) and then stored at −80 °C until analyzed. Plasma samples (20 μL) were treated with the addition of the internal standard solution (20 μL) and acetonitrile (300 μL), then vortexed for 15 min (1000 rpm, RT), and centrifuged of 15 min (3700 rpm, 4 °C). The supernatants were collected for analysis using LC−MS/MS. The data were processed using Analyst software version 1.6.3 (Sciex, ON, Canada).

T1 sequence (O75762 whole entry): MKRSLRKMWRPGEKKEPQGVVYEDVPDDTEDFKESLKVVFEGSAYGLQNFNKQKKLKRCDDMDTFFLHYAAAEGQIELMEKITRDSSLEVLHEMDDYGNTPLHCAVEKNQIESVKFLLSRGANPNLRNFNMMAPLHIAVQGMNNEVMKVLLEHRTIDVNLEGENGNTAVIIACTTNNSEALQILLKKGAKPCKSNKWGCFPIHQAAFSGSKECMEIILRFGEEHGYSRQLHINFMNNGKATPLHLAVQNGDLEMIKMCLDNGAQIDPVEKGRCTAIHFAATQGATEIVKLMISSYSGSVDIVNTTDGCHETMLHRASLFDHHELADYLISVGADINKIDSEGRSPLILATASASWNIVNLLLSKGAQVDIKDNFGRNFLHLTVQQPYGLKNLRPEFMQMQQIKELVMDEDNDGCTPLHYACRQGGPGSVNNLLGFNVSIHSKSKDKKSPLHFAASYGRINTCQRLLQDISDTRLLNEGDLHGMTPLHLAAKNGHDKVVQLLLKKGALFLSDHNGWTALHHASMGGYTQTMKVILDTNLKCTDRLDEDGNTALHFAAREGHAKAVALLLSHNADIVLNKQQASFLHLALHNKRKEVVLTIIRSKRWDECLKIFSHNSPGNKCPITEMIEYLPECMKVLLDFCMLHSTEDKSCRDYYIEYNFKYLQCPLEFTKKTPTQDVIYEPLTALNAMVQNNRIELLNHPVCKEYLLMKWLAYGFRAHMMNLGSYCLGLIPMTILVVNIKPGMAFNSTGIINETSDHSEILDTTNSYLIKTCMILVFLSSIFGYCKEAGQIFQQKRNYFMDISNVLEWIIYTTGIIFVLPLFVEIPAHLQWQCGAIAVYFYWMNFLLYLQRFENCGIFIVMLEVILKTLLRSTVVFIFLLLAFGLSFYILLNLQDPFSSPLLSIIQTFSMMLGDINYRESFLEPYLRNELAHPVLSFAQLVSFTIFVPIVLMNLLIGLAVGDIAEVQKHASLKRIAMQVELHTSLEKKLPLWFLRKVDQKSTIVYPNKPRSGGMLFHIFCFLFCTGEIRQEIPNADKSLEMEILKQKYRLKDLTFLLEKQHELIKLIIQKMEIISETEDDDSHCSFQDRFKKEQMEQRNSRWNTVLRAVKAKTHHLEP

COc1ccc([C@H]2CC(=O)c3c(O)cc(OC)cc3O2)cc1 [(−)-NRG-DM, (−)-naringenin 4′,7-dimethyl ether]
effect on TRPA1 currents and AITC-induced TRPA1 currents (TRPA1 channels): did not enhance any TRPA1 currents or inhibit AITC-induced TRPA1 currents either | painful behaviors (licking time and pain score) ([1]; 30 mg/kg i.p. 30 min before 1% formalin): only had a significant influence in phase I | painful behaviors (licking time and overall pain score) ([1]; 50 mg/kg i.p. 30 min before 1% formalin): significantly attenuated painful behaviors | IC50 [2]: 119.9 ± 0.03 µM | concentration at which significant reduction in number of action potentials started [3]: 10 µM | action potential amplitude ([3]; 1 μM): 95.00 ± 5.65 mV | action potential amplitude ([3]; 3 μM): 93.40 ± 8.27 mV | action potential amplitude ([3]; 10 μM): 86.80 ± 9.75 mV | action potential amplitude ([3]; 30 μM): 74.40 ± 7.08 mV | firing frequency of DRG neurons ([3]; 1~30 μM): dose-dependently inhibited the firing frequency | plasma concentration ([4]; 0.5~1.5 h after i.p. injection at 50 mg/kg): around 7 µM | concentration at 0.5 h ([4]; male, ICR, mouse, ip, plasma, 50 mg/kg i.p., 0.5 h, mean ± SEM): 2290 ± 183 ng/mL | concentration at 1 h ([4]; male, ICR, mouse, ip, plasma, 50 mg/kg i.p., 1 h, mean ± SEM): 2220 ± 1250 ng/mL | concentration at 1.5 h ([4]; male, ICR, mouse, ip, plasma, 50 mg/kg i.p., 1.5 h, mean ± SEM): 717 ± 222 ng/mL | Concentration (μM/L) ([4]; plasma, 50 mg/kg i.p., 0.5 h, mean ± SEM): 7.64 ± 0.61 µM | Concentration (μM/L) ([4]; plasma, 50 mg/kg i.p., 1 h, mean ± SEM): 7.39 ± 4.17 µM | Concentration (μM/L) ([4]; plasma, 50 mg/kg i.p., 1.5 h, mean ± SEM): 2.39 ± 0.74 µM
